For 31 molecules, inhibition and IC50 results are on record in ChEMBL document CHEMBL1136466, “KMI-008, a novel beta-secretase inhibitor containing a hydroxymethylcarbonyl isostere as a transition-state mimic: design and synthesis of substrate-based octapeptides” (Bioorg Med Chem Lett, 2003).

Starred links: 1 amine or outer side, 2 acyl side, 3 side chain; linkers in the order of their positions; H or OH if unused. Non-standard residues stand in square brackets, D forms with d. Residues, ends and D or L forms follow the SMILES beside them. β3hPhe(2R-OH) = O=C([C@H](O)[C@H](Cc1ccccc1)N[*:1])[*:2]; X1 = CC(C)C[C@H](N[*:1])[C@@H](O)C(=O)[*:2]

Experiment [1] deals with T1, Beta-secretase 1 (Homo sapiens, UniProt P56817). The experiment can be described thus: Inhibition of beta-secretase 1 (BACE) was determined at the concentration of 2 uM.
T1 sequence (P56817 whole entry): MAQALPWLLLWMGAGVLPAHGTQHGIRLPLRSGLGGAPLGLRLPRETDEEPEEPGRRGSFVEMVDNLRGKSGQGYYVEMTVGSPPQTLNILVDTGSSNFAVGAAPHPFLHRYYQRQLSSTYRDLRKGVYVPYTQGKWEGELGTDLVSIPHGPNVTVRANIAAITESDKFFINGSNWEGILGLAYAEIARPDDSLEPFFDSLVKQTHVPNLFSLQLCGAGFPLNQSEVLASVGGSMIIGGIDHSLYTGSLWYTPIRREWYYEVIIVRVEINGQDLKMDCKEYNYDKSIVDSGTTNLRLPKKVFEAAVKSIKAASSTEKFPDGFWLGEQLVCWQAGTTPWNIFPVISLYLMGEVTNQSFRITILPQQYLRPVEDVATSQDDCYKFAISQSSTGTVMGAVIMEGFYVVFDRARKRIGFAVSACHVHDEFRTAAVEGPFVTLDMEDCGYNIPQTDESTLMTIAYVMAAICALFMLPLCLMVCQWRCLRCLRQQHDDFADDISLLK
In experiment [2] the target is T1, Beta-secretase 1. Kind of experiment: Inhibitory activity against Beta-secretase 1 was determined.

As usually defined, the inhibition is the relative decrease from the control value, in per cent. Lower therefore signals a response near the control. In turn, `CC(C)C[C@H](NC(=O)[C@@H](NC(=O)[C@@H](N)CCC(=O)O)C(C)C)C(=O)N[C@@H](Cc1ccccc1)[C@@H](O)C(=O)N1CSC(C)(C)C1C(=O)N[C@@H](C)C(=O)N[C@@H](CCC(=O)O)C(=O)N[C@@H](Cc1ccccc1)C(=O)O` (some centres not stated) displayed an inhibition at Beta-secretase 1 [1] of 34%.

At Beta-secretase 1 [1], `CC(C)C[C@H](NC(=O)[C@@H](NC(=O)[C@@H](N)CCC(=O)O)C(C)C)C(=O)N[C@@H](Cc1ccccc1)[C@@H](O)C(=O)N[C@@H](C)C(=O)N[C@@H](C)C(=O)N[C@@H](CCC(=O)O)C(=O)N[C@@H](Cc1ccccc1)C(=O)O` yielded an inhibition of 53%.

As to `CC(C)C[C@H](NC(=O)[C@@H](NC(=O)[C@@H](N)CCC(=O)O)C(C)C)C(=O)N[C@@H](Cc1ccccc1)[C@@H](O)C(=O)N[C@@H](CC(N)=O)C(=O)N[C@@H](C)C(=O)N[C@@H](CCC(=O)O)C(=O)N[C@@H](Cc1ccccc1)C(=O)O`, the inhibition against Beta-secretase 1 [1] stood at 54%.

`CC(C)C[C@H](NC(=O)[C@@H](NC(=O)[C@@H](N)CCC(=O)O)C(C)C)C(=O)N[C@@H](Cc1ccccc1)[C@@H](O)C(=O)N[C@@H](CCC(=O)O)C(=O)N[C@@H](C)C(=O)N[C@@H](CCC(=O)O)C(=O)N[C@@H](Cc1ccccc1)C(=O)O` displayed an inhibition at Beta-secretase 1 [1] of 64%.

`CC(C)C[C@H](NC(=O)[C@@H](NC(=O)[C@@H](N)CCC(=O)O)C(C)C)C(=O)N[C@@H](Cc1ccccc1)[C@@H](O)C(=O)N[C@@H](CCC(N)=O)C(=O)N[C@@H](C)C(=O)N[C@@H](CCC(=O)O)C(=O)N[C@@H](Cc1ccccc1)C(=O)O` displayed an inhibition at Beta-secretase 1 [1] of 41%.

At Beta-secretase 1 [1], `CC(C)C[C@H](NC(=O)[C@@H](NC(=O)[C@@H](N)CCC(=O)O)C(C)C)C(=O)N[C@H](Cc1ccccc1)[C@@H](O)C(=O)N1CSC(C)(C)C1C(=O)N[C@@H](C)C(=O)N[C@@H](CCC(=O)O)C(=O)N[C@@H](Cc1ccccc1)C(=O)O` (some centres not stated) returned an inhibition of 34%.

Consider `CC(C)C[C@H](NC(=O)[C@@H](NC(=O)[C@@H](N)CCC(=O)O)C(C)C)C(=O)N[C@H](Cc1ccccc1)[C@@H](O)C(=O)N[C@@H](C)C(=O)N[C@@H](C)C(=O)N[C@@H](CCC(=O)O)C(=O)N[C@@H](Cc1ccccc1)C(=O)O`, for which the inhibition at Beta-secretase 1 [1] is < 20%.

Molecule `CC(C)C[C@H](NC(=O)[C@@H](NC(=O)[C@@H](N)CCC(=O)O)C(C)C)C(=O)N[C@H](Cc1ccccc1)[C@@H](O)C(=O)N[C@@H](CC(=O)O)C(=O)N[C@@H](C)C(=O)N[C@@H](CCC(=O)O)C(=O)N[C@@H](Cc1ccccc1)C(=O)O` returned an inhibition against Beta-secretase 1 [1] of 66%.

For the molecule `CC(C)C[C@H](NC(=O)[C@@H](NC(=O)[C@@H](N)CCC(=O)O)C(C)C)C(=O)N[C@H](Cc1ccccc1)[C@@H](O)C(=O)N[C@@H](CC(N)=O)C(=O)N[C@@H](C)C(=O)N[C@@H](CCC(=O)O)C(=O)N[C@@H](Cc1ccccc1)C(=O)O`, the inhibition against Beta-secretase 1 [1] came to 22%.

The molecule `CC(C)C[C@H](NC(=O)[C@@H](NC(=O)[C@@H](N)CCC(=O)O)C(C)C)C(=O)N[C@H](Cc1ccccc1)[C@@H](O)C(=O)N[C@@H](CCC(=O)O)C(=O)N[C@@H](C)C(=O)N[C@@H](CCC(=O)O)C(=O)N[C@@H](Cc1ccccc1)C(=O)O` showed an inhibition on Beta-secretase 1 [1] of 47%.

In turn, `CC(C)C[C@H](NC(=O)[C@@H](NC(=O)[C@@H](N)CCC(=O)O)C(C)C)C(=O)N[C@H](Cc1ccccc1)[C@@H](O)C(=O)N[C@@H](CCC(N)=O)C(=O)N[C@@H](C)C(=O)N[C@@H](CCC(=O)O)C(=O)N[C@@H](Cc1ccccc1)C(=O)O` yielded an inhibition against Beta-secretase 1 [1] of 33%.

`CC[C@@H](C)[C@H](NC(=O)[C@@H](N)CCC(=O)O)C(=O)N[C@@H](CC(C)C)C(=O)N[C@@H](Cc1ccccc1)[C@@H](O)C(=O)N[C@@H](CC(=O)O)C(=O)N[C@@H](C)C(=O)N[C@@H](CCC(=O)O)C(=O)N[C@@H](Cc1ccccc1)C(=O)O` registered an inhibition on Beta-secretase 1 [1] of 26%.

For the molecule `CC(C)C[C@H](NC(=O)[C@H](Cc1ccccc1)NC(=O)[C@@H](N)CCC(=O)O)C(=O)N[C@@H](Cc1ccccc1)[C@@H](O)C(=O)N[C@@H](CC(=O)O)C(=O)N[C@@H](C)C(=O)N[C@@H](CCC(=O)O)C(=O)N[C@@H](Cc1ccccc1)C(=O)O` (H-EFL[β3hPhe(2R-OH)]DAEF-OH), at Beta-secretase 1 [1], the inhibition is < 20%.

On to `CC(C)C[C@H](NC(=O)[C@H](CC(C)C)NC(=O)[C@@H](N)CCC(=O)O)C(=O)N[C@@H](Cc1ccccc1)[C@@H](O)C(=O)N[C@@H](CC(=O)O)C(=O)N[C@@H](C)C(=O)N[C@@H](CCC(=O)O)C(=O)N[C@@H](Cc1ccccc1)C(=O)O` (H-ELL[β3hPhe(2R-OH)]DAEF-OH), for which the inhibition against Beta-secretase 1 [1] is < 20%.

In the case of `CSCC[C@H](NC(=O)[C@@H](N)CCC(=O)O)C(=O)N[C@@H](CC(C)C)C(=O)N[C@@H](Cc1ccccc1)[C@@H](O)C(=O)N[C@@H](CC(=O)O)C(=O)N[C@@H](C)C(=O)N[C@@H](CCC(=O)O)C(=O)N[C@@H](Cc1ccccc1)C(=O)O` (H-EML[β3hPhe(2R-OH)]DAEF-OH), at Beta-secretase 1 [1], the inhibition was < 20%.

`CC(C)[C@H](NC(=O)[C@@H](N)CCC(=O)O)C(=O)N[C@@H](CC(=O)O)C(=O)N[C@@H](Cc1ccccc1)[C@@H](O)C(=O)N[C@@H](CC(=O)O)C(=O)N[C@@H](C)C(=O)N[C@@H](CCC(=O)O)C(=O)N[C@@H](Cc1ccccc1)C(=O)O` (H-EVD[β3hPhe(2R-OH)]DAEF-OH) came in with an inhibition against Beta-secretase 1 [1] of 25%.

On Beta-secretase 1 [1], `CC(C)[C@H](NC(=O)[C@@H](N)CCC(=O)O)C(=O)N[C@@H](CCC(=O)O)C(=O)N[C@@H](Cc1ccccc1)[C@@H](O)C(=O)N[C@@H](CC(=O)O)C(=O)N[C@@H](C)C(=O)N[C@@H](CCC(=O)O)C(=O)N[C@@H](Cc1ccccc1)C(=O)O` (H-EVE[β3hPhe(2R-OH)]DAEF-OH) showed an inhibition of 30%.

Turning to `CC(C)[C@H](NC(=O)[C@@H](N)CCC(=O)O)C(=O)N[C@@H](CCCCN)C(=O)N[C@@H](Cc1ccccc1)[C@@H](O)C(=O)N[C@@H](CC(=O)O)C(=O)N[C@@H](C)C(=O)N[C@@H](CCC(=O)O)C(=O)N[C@@H](Cc1ccccc1)C(=O)O` (H-EVK[β3hPhe(2R-OH)]DAEF-OH), at Beta-secretase 1 [1], the inhibition is < 20%.

Molecule `CC(C)C[C@H](NC(=O)[C@@H](NC(=O)[C@@H](N)CCC(=O)O)C(C)C)C(=O)N[C@@H](Cc1ccccc1)[C@@H](O)C(=O)N[C@@H](C)C(=O)N[C@@H](CCC(=O)O)C(=O)N[C@@H](CCC(=O)O)C(=O)N[C@@H](Cc1ccccc1)C(=O)O` (H-EVL[β3hPhe(2R-OH)]AEEF-OH) displayed an inhibition on Beta-secretase 1 [1] of 78%.

`CC(C)C[C@H](NC(=O)[C@@H](NC(=O)[C@@H](N)CCC(=O)O)C(C)C)C(=O)N[C@@H](Cc1ccccc1)[C@@H](O)C(=O)N[C@@H](C)C(=O)N[C@@H](Cc1ccccc1)C(=O)N[C@@H](CCC(=O)O)C(=O)N[C@@H](Cc1ccccc1)C(=O)O` (H-EVL[β3hPhe(2R-OH)]AFEF-OH) displayed an inhibition against Beta-secretase 1 [1] of 60%.

Take `CC(C)C[C@H](NC(=O)[C@H](C)NC(=O)[C@H](O)[C@H](Cc1ccccc1)NC(=O)[C@H](CC(C)C)NC(=O)[C@@H](NC(=O)[C@@H](N)CCC(=O)O)C(C)C)C(=O)N[C@@H](CCC(=O)O)C(=O)N[C@@H](Cc1ccccc1)C(=O)O` (H-EVL[β3hPhe(2R-OH)]ALEF-OH): the inhibition against Beta-secretase 1 [1] worked out at 41%.

On Beta-secretase 1 [1], `CC(C)C[C@H](NC(=O)[C@@H](NC(=O)[C@@H](N)CCC(=O)O)C(C)C)C(=O)N[C@@H](Cc1ccccc1)[C@@H](O)C(=O)N[C@@H](C)C(=O)N[C@H](C(=O)N[C@@H](CCC(=O)O)C(=O)N[C@@H](Cc1ccccc1)C(=O)O)C(C)C` (H-EVL[β3hPhe(2R-OH)]AVEF-OH) showed an inhibition of 30%.

At Beta-secretase 1 [1], `CC(C)C[C@H](NC(=O)[C@@H](NC(=O)[C@@H](N)CCC(=O)O)C(C)C)C(=O)N[C@@H](Cc1ccccc1)[C@@H](O)C(=O)N[C@@H](CC(=O)O)C(=O)N[C@@H](C)C(=O)N[C@@H](Cc1ccccc1)C(=O)N[C@@H](Cc1ccccc1)C(=O)O` (H-EVL[β3hPhe(2R-OH)]DAFF-OH) registered an inhibition of 67%.

For the molecule `CC(C)C[C@H](NC(=O)[C@H](C)NC(=O)[C@H](CC(=O)O)NC(=O)[C@H](O)[C@H](Cc1ccccc1)NC(=O)[C@H](CC(C)C)NC(=O)[C@@H](NC(=O)[C@@H](N)CCC(=O)O)C(C)C)C(=O)N[C@@H](Cc1ccccc1)C(=O)O` (H-EVL[β3hPhe(2R-OH)]DALF-OH), the inhibition against Beta-secretase 1 [1] was 57%.

Take `CC(C)C[C@H](NC(=O)[C@@H](NC(=O)[C@@H](N)CCC(=O)O)C(C)C)C(=O)N[C@@H](Cc1ccccc1)[C@@H](O)C(=O)N[C@@H](CC(=O)O)C(=O)N[C@@H](C)C(=O)N[C@@H](CCC(N)=O)C(=O)N[C@@H](Cc1ccccc1)C(=O)O` (H-EVL[β3hPhe(2R-OH)]DAQF-OH): the inhibition on Beta-secretase 1 [1] is 56%.

As to `CC(C)C[C@H](NC(=O)[C@@H](NC(=O)[C@@H](N)CCC(=O)O)C(C)C)C(=O)N[C@@H](Cc1ccccc1)[C@@H](O)C(=O)N[C@@H](CC(=O)O)C(=O)N[C@@H](C)C(=O)N[C@H](C(=O)N[C@@H](Cc1ccccc1)C(=O)O)C(C)C` (H-EVL[β3hPhe(2R-OH)]DAVF-OH), the inhibition on Beta-secretase 1 [1] amounted to 57%.

Molecule `CSCC[C@H](NC(=O)[C@@H](NC(=O)[C@@H](N)CCC(=O)O)C(C)C)C(=O)N[C@@H](Cc1ccccc1)[C@@H](O)C(=O)N[C@@H](CC(=O)O)C(=O)N[C@@H](C)C(=O)N[C@@H](CCC(=O)O)C(=O)N[C@@H](Cc1ccccc1)C(=O)O` (H-EVM[β3hPhe(2R-OH)]DAEF-OH) had an inhibition against Beta-secretase 1 [1] of 42%.

In the case of `CC(C)C[C@H](NC(=O)[C@H](CC(N)=O)NC(=O)[C@@H](NC(=O)[C@@H](N)CCC(=O)O)C(C)C)[C@@H](O)C(=O)N[C@@H](CC(=O)O)C(=O)N[C@@H](C)C(=O)N[C@@H](CCC(=O)O)C(=O)N[C@@H](Cc1ccccc1)C(=O)O` (H-EVN[X1]DAEF-OH), on Beta-secretase 1 [1], the inhibition was < 20%.

The molecule `CC(C)[C@H](NC(=O)[C@@H](N)CCC(=O)O)C(=O)N[C@@H](CC(N)=O)C(=O)N[C@@H](Cc1ccccc1)[C@@H](O)C(=O)N[C@@H](CC(=O)O)C(=O)N[C@@H](C)C(=O)N[C@@H](CCC(=O)O)C(=O)N[C@@H](Cc1ccccc1)C(=O)O` (H-EVN[β3hPhe(2R-OH)]DAEF-OH) yielded an inhibition at Beta-secretase 1 [1] of 24%.

Molecule `CC(C)[C@H](NC(=O)[C@@H](N)CCC(=O)O)C(=O)N[C@@H](CCC(N)=O)C(=O)N[C@@H](Cc1ccccc1)[C@@H](O)C(=O)N[C@@H](CC(=O)O)C(=O)N[C@@H](C)C(=O)N[C@@H](CCC(=O)O)C(=O)N[C@@H](Cc1ccccc1)C(=O)O` (H-EVQ[β3hPhe(2R-OH)]DAEF-OH) had an inhibition on Beta-secretase 1 [1] of 36%.

Usually IC50 stands for the point on the concentration scale where inhibition reaches its midpoint. In the case of `CC(C)C[C@H](NC(=O)[C@@H](NC(=O)[C@@H](N)CCC(=O)O)C(C)C)C(=O)N[C@@H](Cc1ccccc1)[C@@H](O)C(=O)N[C@@H](CC(=O)O)C(=O)N[C@@H](C)C(=O)N[C@@H](CCC(=O)O)C(=O)N[C@@H](Cc1ccccc1)C(=O)O` [HGLUVALLEUPNSASPALAGLUPHEOH], the inhibition at Beta-secretase 1 [1] was > 90%. Also, at Beta-secretase 1 [2], the midpoint of inhibition, the IC50, lay at 413 nM.
